Test results published in patent US11584728B2, “Compositions and methods for the prevention and/or treatment of mitochondrial disease, including Friedreich's ataxia” (STEALTH BIOTHERAPEUTICS INC., priority 2019, dated 2023).
Read-outs that look alike come from different tables or passages of the source.

How the values were obtained:
[1] = test system: frataxin deficient fibroblasts (GM03665); experiment: Frataxin Deficient Fibroblast Viability Assay (BSO Assay); details: Homo sapiens, 48 h
[2] = test system: Nrf-2; experiment: Nrf-2 Activation Assay (Nrf-2 Assay); assay type: cell-based, human; details: 1 μM, 24 hours; for Nrf-2 Assay: Table 7, GM03665 fibroblasts, qPCR of Nrf-2 responsive genes
Method: Example 21: Nrf-2 Activation Assay (Nrf-2 Assay)
This assay was developed internally and was designed to determine if the novel test compounds disclosed herein active Nrf-2 and thereby promote resolution of inflammation by the mechanism believed to be responsible for the activity of omaveloxolone.
Briefly, GM03665 Friedreich Ataxia patient fibroblasts were grown in 12 Well Plates (TC Cell+F) (Sarstedt, Nümbrecht Germany), at a density of 12×10^4 cells/per well in DMEM/F12 (Gibco, ThermoFisher Scientific, Waltham, Mass., USA) cell media supplemented with 10% FBS and 1% Pen/Strep. Cells were left to rest overnight at 37° C. in a humidified atmosphere with 5% CO2 to allow attachment of the cells to the culture plate. Before continuing assay visual inspection of each well was done by light microscopy to detect any possible bacterial and fungal contamination. […] After incubation, cell media was removed and total RNA from the cells was isolated using E.Z.N.A.® Total RNA Kit I (Omega Bio-tek, Norcross, Ga., USA) spin columns, and first-strand cDNA synthesis was carried out using a High Capacity cDNA Reverse Transcription Kit (Applied Biosystems™, Foster City, Calif.) following the manufacturer's instructions. qPCR analysis of gene expression was performed by mixing SYBR® Green Master Mix (Applied Biosystems™) with synthesized cDNA and forward and reverse primers. […] (60 cycles), and 95° C. for 60 seconds, followed by melt curve analysis at 72-95° C., 0.3° C./sec. The relative expression levels for each gene were calculated with the ΔΔCt method and normalized to the expression of REEP5 and SNRPD3 genes.

[3] = test system: HepG2 human hepatocarcinoma cells; experiment: Rotenone ATP-Assay (Complex I by-pass); assay type: cell-based; details: for EC50: Homo sapiens, 1 h, HepG2 cells, 50 micromolar rotenone, 60 minutes; for Activity in both the BSO Assay and the Rotenone ATP Assay (in words): circumvent BSO induced cell death and restore ATP production when Complex I is inhibited
Method: Example 18: Rotenone ATP-Assay
Introduction: • This assay has been adapted from Haefeli R H, Erb M, Gemperli A C, Robay D, Courdier Fruh I, et al. (2011) NQO1-Dependent Redox Cycling of Idebenone: Effects on Cellular Redox Potential and Energy Levels. PLoS ONE 6(3): e17963. HepG2 human hepatocarcinoma cells were co-incubated with the electron transport chain Complex I toxin rotenone +/−compounds of interest and the corresponding effect on ATP synthesis was measured with a bioluminescent substrate.
Assay Experimental: • In brief, HepG2 cells were plated at 25,000 cells per well in low glucose (1 gram/Liter) DMEM medium +10% fetal calf serum and incubated for 24 hours. The following day, the media was decanted and subsequently replaced with glucose free/serum free DMEM which has been supplemented with 50 micromolar rotenone and compound of interest. Serial dilutions of compound were prepared in 3× dilutions beginning at 25 micromolar. The cells were incubated for 60 minutes in a humidified tissue culture incubator. Following incubation, ATP levels were quantified via bioluminescent assay (Promega […]) and readings were captured on a standard microplate reader.
Calculations: • ATP bioluminescence is plotted versus the log of compound of interest and data were used to generate EC50 values. Curve fitting was performed using a sigmoidal dose response curve fit function (GraphPad Prism software).
Robustness of curve fit was assessed as a quality control measure, with an R squared value of at least 0.80 being required for a successful curve fit. Compounds of interest showing an increase in ATP bioluminescence relative to vehicle control were verified in an independent biological replicate of n=3 technical replicates per dose.
Discussion: • This assay is a direct measure of the ability of compounds of interest to restore ATP production under conditions of inhibition of Complex I of the mitochondrial electron transport chain. As the majority of ATP produced via the electron transport chain is thought to derive from Complex I activity, significant impairment in Complex I function has dire biological consequences. Of note, Complex I mutations are thought to drive pathophysiology in multiple mitochondrial diseases, including Leigh syndrome and Leber's Hereditary Optic Neuropathy (LHON), while diminished Complex I activity and the resultant attenuation of ATP production has been shown in neurodegenerative diseases, including Friedreich's Ataxia, Parkinson's Disease and Huntington's Disease.

[4] = test system: GM03665 cells; experiment: RSL3 Toxicity Assay (RSL3 Assay); assay type: cell-based, human; details: Homo sapiens, GM03665 cells, RSL3 2 μM, 24 hours, MTT
Method: Example 19: RSL3 Toxicity Assay (RSL3 Assay)
In brief, GM03665 cells (Coriell Institute) were seeded in 96-well plates (Sarstedt) in DMEM cell culture media containing 10% Fetal Bovine serum and 1% Penicillin-Streptomycin (Pen-Strep) antibiotic mix at the amount of 2×10^4/mL (100 μL or 2×10^3 cells per well). Cells were left to rest overnight at 37° C. in a humidified atmosphere with 5% CO2 to allow attachment of the cells to the culture plate. Test compounds were prepared as DMSO stocks (10 mM) and were serially diluted in cell culture media to obtain 2× working solutions. Cell media was discarded and replaced by 50 μL of test compound solutions or cell media with vehicle for control wells. Within 15 minutes, 2× working solution (4 μM) of 1S,3R-RSL3 (CAS #1219810-16-8, Sigma-Aldrich) (diluted from 5 mM DMSO stock in cell culture media) was added. Final reaction volume was 100 μL and final DMSO concentration in reaction was kept below 0.2% (v/v) and equal in all wells. Final RSL3 concentration was 2 μM and test compound final concentrations in reaction were up to 1000 nM. After 24 hours of incubation cell viability was assessed by MTT test. MTT (Sigma-Aldrich) solution 1 mg/mL in 1×PBS (pH=7,4) was prepared 1 hour before the assay and filtered through Filtropur S 0.2 filters (Sarstedt). Cell media with test compounds was discarded and 100 μL of MTT solution was added to cells. The plates were incubated for 2 hours at +37° C. Thereafter, the MTT solution was removed and 100 μL of isopropanol was added to dissolve sediment. Absorption at 570 and 650 nm was measured using Hidex Sense microplate reader.

[5] = ATP bioluminescence, read-out: EC50 Rotenone ATP Assay
[6] = Table 7, read-out: Rotenone ATP Assay EC50
[7] = Table 3, mean of at least three measurements, nM printed in Table 7, read-out: RSL3 Assay EC50, Mean
[8] = Table 7, read-out: RSL3 Assay EC50

Structure (SMILES)	EC50 ([1]; read-out: EC50 (nM) BSO Assay) [nM]	EC50 [3, 5] [nM]	EC50 ([1]; read-out: BSO Assay) [nM]	other results
CC1=C(C)C(=O)C(CC[C@@](C)(O)CC/C=C(\C)CC/C=C(\C)CCC=C(F)F)=C(C)C1=O [Compound J, 2-((S,6E,10E)-15,15-difluoro-3-hydroxy-3,7,11-trimethylpentadeca-6,10,14-trien-1-yl)-3,5,6-trimethylcyclohexa-2,5-diene-1,4-dione]	< 100	–	–	–
CC1(C)CC[C@]2(NC(=O)C(C)(F)F)CC[C@]3(C)[C@H](C(=O)C=C4[C@@]5(C)C=C(C#N)C(=O)C(C)(C)[C@@H]5CC[C@]43C)[C@@H]2C1 [Omaveloxolone, reference compound]	< 100	> 3000	48.6	Activation of Nrf-2 responsive genes (in words, FIG. 7) [2]: positive; Nrf-2 Assay [2]: Active
Cc1c(C)c2c(c(C)c1O)CC[C@@](C)(CCC=C(F)F)O2 [Compound 67, (R)-2-(4,4-difluorobut-3-en-1-yl)-2,5,7,8-tetramethylchroman-6-ol]	< 100	–	–	Activity in both the BSO Assay and the Rotenone ATP Assay (in words) [3]: possess both activities
CC1=C(C)C(=O)C(CC[C@](C)(O)CC/C=C(\C)CC/C=C(\C)CCC=C(F)F)=C(C)C1=O [Compound C, 2-((R,6E,10E)-15,15-difluoro-3-hydroxy-3,7,11-trimethylpentadeca-6,10,14-trien-1-yl)-3,5,6-trimethylcyclohexa-2,5-diene-1,4-dione]	< 100	–	–	–
CC1=C(C)C(=O)C(CC[C@](C)(O)CC/C=C(\C)CC/C=C(\C)CCC=C(CF)CF)=C(C)C1=O [Compound A, 2-((R,6E,10E)-16-fluoro-15-(fluoromethyl)-3-hydroxy-3,7,11-trimethylhexadeca-6,10,14-trien-1-yl)-3,5,6-trimethylcyclohexa-2,5-diene-1,4-dione]	< 100	–	–	–
CC1=C(C)C(=O)C(CC[C@](C)(O)CC/C=C(\C)CC/C=C(\C)CCC=C2CCCC2)=C(C)C1=O [Compound F, 2-((R,6E,10E)-14-cyclopentylidene-3-hydroxy-3,7,11-trimethyltetradeca-6,10-dien-1-yl)-3,5,6-trimethylcyclohexa-2,5-diene-1,4-dione]	< 100	–	–	–
C/C(=C\CC[C@]1(C)CCc2c(C)c(O)c(C)c(C)c2O1)CCC=C(F)F [Compound 56, (R,E)-2-(8,8-difluoro-4-methylocta-3,7-dien-1-yl)-2,5,7,8-tetramethylchroman-6-ol]	< 100	–	–	–
COC1=C(OC)C(=O)C(CCCCCCCCCCO)=C(C)C1=O [Idebenone, reference compound]	–	1000 to 3000	> 1000	EC50 [3, 6]: 1560 nM
CC1=C(C)C(=O)C(CC[C@](C)(O)CC/C=C(\C)CCC=C(F)F)=C(C)C1=O [Compound H, (R,E)-2-(11,11-difluoro-3-hydroxy-3,7-dimethylundeca-6,10-dien-1-yl)-3,5,6-trimethylcyclohexa-2,5-diene-1,4-dione]	100 to 1000	< 1000	164	Nrf-2 Assay [2]: Inactive; EC50 [3, 6]: 1140 nM; EC50 [4, 7]: 179 nM; EC50 [4, 8]: 179 nM
CC1=C(C)C(=O)C(CC[C@@](C)(O)CCC=C(F)F)=C(C)C1=O [Compound K, (S)-2-(7,7-difluoro-3-hydroxy-3-methylhept-6-en-1-yl)-3,5,6-trimethylcyclo-hexa-2,5-diene-1,4-dione]	< 100	> 3000	–	–
CC(=CCC/C(C)=C/CC/C(C)=C/CC[C@@](C)(O)CCC1=C(C)C(=O)C(C)=C(C)C1=O)CF [Compound B, 2-((R,6E,10E)-16-fluoro-3-hydroxy-3,7,11,15-tetramethylhexadeca-6,10,14-trien-1-yl)-3,5,6-trimethylcyclohexa-2,5-diene-1,4-dione]	< 100	–	–	–
CC1=C(C)C(=O)C(CC[C@](C)(O)CCC=C(F)F)=C(C)C1=O [Compound I, (R)-2-(7,7-difluoro-3-hydroxy-3-methylhept-6-en-1-yl)-3,5,6-trimethylcyclo-hexa-2,5-diene-1,4-dione]	100 to 1000	> 3000	–	–
CC1=C(C)C(=O)C(CC[C@@](C)(O)CC/C=C(\C)CCC=C(F)F)=C(C)C1=O [Compound L, (S,E)-2-(11,11-difluoro-3-hydroxy-3,7-dimethylundeca-6,10-dien-1-yl)-3,5,6-trimethylcyclohexa-2,5-diene-1,4-dione]	< 100	< 1000	39.1	Nrf-2 Assay [2]: Inactive; EC50 [3, 6]: 891 nM; Activity in both the BSO Assay and the Rotenone ATP Assay (in words) [3]: possess both activities; EC50 [4, 7]: 41.9 nM; EC50 [4, 8]: 41.9 nM
CC1=C(C)C(=O)C(CC[C@](C)(O)CC/C=C(\C)CC/C=C(\C)CCC=C2CCCCC2)=C(C)C1=O [Compound G, 2-((R,6E,10E)-14-cyclohexylidene-3-hydroxy-3,7,11-trimethyltetradeca-6,10-dien-1-yl)-3,5,6-trimethylcyclohexa-2,5-diene-1,4-dione]	< 100	–	–	–
CC1=C(C)C(=O)C(CC[C@](C)(O)CCCCCCCCC(F)(F)F)=C(C)C1=O [Compound N, (R)-2,3,5-trimethyl-6-(12,12,12-trifluoro-3-hydroxy-3-methyldodecyl)cyclo-hexa-2,5-diene-1,4-dione]	100 to 1000	1000 to 3000	144	Nrf-2 Assay [2]: Inactive; EC50 [3, 6]: 2360 nM; Activity in both the BSO Assay and the Rotenone ATP Assay (in words) [3]: possess both activities; EC50 [4, 7]: 93 nM; EC50 [4, 8]: 93 nM
CC1=C(C)C(=O)C(CC[C@](C)(O)CC/C=C(\C)CC/C=C(\C)CCC=C2CCC2)=C(C)C1=O [Compound D, 2-((R,6E,10E)-14-cyclobutylidene-3-hydroxy-3,7,11-trimethyltetradeca-6,10-dien-1-yl)-3,5,6-trimethylcyclohexa-2,5-diene-1,4-dione]	< 100	> 3000	–	–
